Measured values reported in BigSolDB 2.1.

C[C@H]1O[C@@H](n2cc(F)c(=O)[nH]c2=O)[C@H](O)[C@@H]1O
solubility (mole fraction)
Details	in 2-ethylhexanol	in methanol
278.15 K	1.43e-05	0.00296
283.15 K	2.23e-05	0.00334
288.15 K	3.13e-05	0.00414
293.15 K	4.66e-05	0.00466
298.15 K	6.85e-05	0.00561
303.15 K	9.63e-05	0.00653
308.15 K	0.000139	0.00757
313.15 K	0.000182	0.00849
318.15 K	0.000252	0.0101
323.15 K	0.000373	0.0113
328.15 K	0.000496	0.0133
